Columns and labels:
[1] = biological target: T1, VEGFR-2 (Homo sapiens, UniProt P35968); experiment: VEGFR-2 Western blot in MCF7; type: cell-based; conditions: for VEGFR2 MCF7 % Inhibition: Western blot at MTT-IC50; for VEGFR2 MCF7 RQ (relative quantification): Western blot at MTT-IC50, control RQ 3.725
[2] = biological target: T2, COX-1 (Ovis aries, UniProt P05979); experiment: COX-1 inhibitor screening kit; type: biochemical
T2 sequence (P05979 25-600): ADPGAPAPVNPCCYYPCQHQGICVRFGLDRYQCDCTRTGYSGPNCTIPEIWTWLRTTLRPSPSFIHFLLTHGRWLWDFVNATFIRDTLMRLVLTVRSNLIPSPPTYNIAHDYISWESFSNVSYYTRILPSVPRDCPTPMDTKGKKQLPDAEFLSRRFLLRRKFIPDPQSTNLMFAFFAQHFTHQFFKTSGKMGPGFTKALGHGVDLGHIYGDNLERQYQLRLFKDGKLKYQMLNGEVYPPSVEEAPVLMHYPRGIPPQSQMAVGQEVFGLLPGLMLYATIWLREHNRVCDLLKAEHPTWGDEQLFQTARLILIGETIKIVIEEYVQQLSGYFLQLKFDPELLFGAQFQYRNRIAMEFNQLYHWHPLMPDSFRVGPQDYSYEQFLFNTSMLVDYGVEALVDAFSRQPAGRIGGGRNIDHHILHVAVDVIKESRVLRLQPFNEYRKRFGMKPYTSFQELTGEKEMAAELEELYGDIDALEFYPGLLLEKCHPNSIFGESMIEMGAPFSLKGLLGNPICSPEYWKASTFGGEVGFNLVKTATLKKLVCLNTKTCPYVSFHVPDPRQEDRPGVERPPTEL

[3] = biological target: T3, COX-2 (Homo sapiens, UniProt P35354); experiment: COX-2 inhibitor screening kit; type: biochemical
T3 sequence (P35354 18-604): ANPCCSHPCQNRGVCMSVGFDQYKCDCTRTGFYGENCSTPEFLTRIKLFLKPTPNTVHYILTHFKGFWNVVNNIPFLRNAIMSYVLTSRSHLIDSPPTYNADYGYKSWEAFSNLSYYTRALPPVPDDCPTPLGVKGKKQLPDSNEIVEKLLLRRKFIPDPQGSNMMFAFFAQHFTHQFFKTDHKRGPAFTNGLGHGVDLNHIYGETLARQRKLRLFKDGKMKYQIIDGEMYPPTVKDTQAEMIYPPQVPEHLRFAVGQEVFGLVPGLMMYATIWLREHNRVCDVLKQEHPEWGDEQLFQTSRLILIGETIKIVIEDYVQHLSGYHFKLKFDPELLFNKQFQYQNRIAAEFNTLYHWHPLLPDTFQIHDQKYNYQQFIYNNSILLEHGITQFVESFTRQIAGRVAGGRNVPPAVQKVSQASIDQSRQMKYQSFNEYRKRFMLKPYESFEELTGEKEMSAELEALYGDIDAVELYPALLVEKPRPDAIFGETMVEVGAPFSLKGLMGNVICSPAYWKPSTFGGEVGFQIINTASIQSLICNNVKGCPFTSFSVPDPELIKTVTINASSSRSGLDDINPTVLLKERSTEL

[4] = system: HCT116 (colon) cancer cell line; experiment: MTT antiproliferative assay, HCT116; type: cell-based; conditions: for IC50: Homo sapiens, HCT-116, 72 h, read-out: IC50 ± SE, HCT116; for SI (selectivity index), HCT116: IC50 of RPE1 relative to that of HCT116
[5] = biological target: T4, EGFR (Homo sapiens, UniProt P00533); experiment: EGFR Western blot in MCF7; type: cell-based; conditions: for EGFR MCF7 % Inhibition: Western blot at MTT-IC50; for EGFR MCF7 RQ (relative quantification): Western blot at MTT-IC50, control RQ 4.226
[6] = system: SARS-CoV-2 (hCoV-19/Egypt/NRC-03/2020); conditions: SARS-CoV-2 / VERO-E6
[7] = biological target: T4, EGFR; experiment: EGFR Western blot in HCT116; type: cell-based; conditions: for EGFR HCT116 % Inhibition: Western blot at MTT-IC50; for EGFR HCT116 RQ (relative quantification): Western blot at MTT-IC50, control RQ 4.0382
[8] = system: RPE1 (normal human immortalized retinal pigment epithelial cell line); experiment: MTT assay against normal RPE1 cells; type: cell-based; conditions: RPE-1, read-out: IC50 ± SE, RPE1
[9] = system: MCF7 (breast) cancer cell line; experiment: MTT antiproliferative assay, MCF7; type: cell-based; conditions: for IC50: Homo sapiens, MCF7, 72 h, read-out: IC50 ± SE, MCF7; for SI (selectivity index), MCF7: IC50 of RPE1 relative to that of MCF7
[10] = biological target: T1, VEGFR-2; experiment: VEGFR-2 Western blot in HCT116; type: cell-based; conditions: for VEGFR2 HCT116 % Inhibition: Western blot at MTT-IC50; for VEGFR2 HCT116 RQ (relative quantification): Western blot at MTT-IC50, control RQ 3.817
[11] = system: A431 (squamous skin) cancer cell line; experiment: MTT antiproliferative assay, A431; type: cell-based; conditions: for IC50: Homo sapiens, A-431, 72 h, read-out: IC50 ± SE, A431; for SI (selectivity index), A431: IC50 of RPE1 relative to that of A431

T1 sequence (P35968 20-1356): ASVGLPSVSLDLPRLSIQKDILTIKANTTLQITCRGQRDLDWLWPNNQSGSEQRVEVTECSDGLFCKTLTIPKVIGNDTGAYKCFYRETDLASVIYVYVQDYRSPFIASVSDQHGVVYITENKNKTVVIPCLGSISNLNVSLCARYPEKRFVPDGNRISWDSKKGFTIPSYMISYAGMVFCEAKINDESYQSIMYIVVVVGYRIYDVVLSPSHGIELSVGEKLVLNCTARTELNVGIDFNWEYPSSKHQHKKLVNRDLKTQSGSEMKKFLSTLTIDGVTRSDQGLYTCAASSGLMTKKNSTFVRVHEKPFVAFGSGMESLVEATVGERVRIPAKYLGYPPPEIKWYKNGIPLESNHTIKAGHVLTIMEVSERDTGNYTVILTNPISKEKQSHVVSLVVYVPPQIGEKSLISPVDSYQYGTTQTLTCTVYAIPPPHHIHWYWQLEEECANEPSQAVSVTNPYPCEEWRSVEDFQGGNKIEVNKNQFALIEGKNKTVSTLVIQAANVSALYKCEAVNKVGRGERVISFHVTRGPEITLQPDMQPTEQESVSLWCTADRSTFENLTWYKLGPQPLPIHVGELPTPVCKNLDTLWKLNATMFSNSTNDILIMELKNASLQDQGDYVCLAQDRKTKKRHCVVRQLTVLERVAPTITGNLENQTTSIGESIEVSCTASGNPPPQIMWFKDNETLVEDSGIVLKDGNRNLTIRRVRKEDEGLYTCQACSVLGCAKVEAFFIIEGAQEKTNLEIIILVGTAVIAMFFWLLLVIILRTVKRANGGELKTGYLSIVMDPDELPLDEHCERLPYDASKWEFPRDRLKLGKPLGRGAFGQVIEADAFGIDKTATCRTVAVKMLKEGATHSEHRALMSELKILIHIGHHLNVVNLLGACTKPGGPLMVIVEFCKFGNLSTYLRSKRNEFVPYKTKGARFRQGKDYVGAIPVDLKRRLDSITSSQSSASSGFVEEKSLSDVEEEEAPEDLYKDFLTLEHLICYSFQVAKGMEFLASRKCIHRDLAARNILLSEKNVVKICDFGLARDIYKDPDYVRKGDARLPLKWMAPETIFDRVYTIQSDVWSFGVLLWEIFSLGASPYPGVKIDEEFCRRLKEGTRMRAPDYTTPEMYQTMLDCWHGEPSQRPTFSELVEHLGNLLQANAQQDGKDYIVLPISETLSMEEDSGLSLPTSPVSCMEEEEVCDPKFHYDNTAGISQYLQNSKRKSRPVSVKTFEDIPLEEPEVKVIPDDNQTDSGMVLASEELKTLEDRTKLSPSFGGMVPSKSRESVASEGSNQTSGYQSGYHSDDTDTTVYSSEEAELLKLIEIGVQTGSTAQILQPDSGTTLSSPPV
T4 sequence (P00533 25-1210): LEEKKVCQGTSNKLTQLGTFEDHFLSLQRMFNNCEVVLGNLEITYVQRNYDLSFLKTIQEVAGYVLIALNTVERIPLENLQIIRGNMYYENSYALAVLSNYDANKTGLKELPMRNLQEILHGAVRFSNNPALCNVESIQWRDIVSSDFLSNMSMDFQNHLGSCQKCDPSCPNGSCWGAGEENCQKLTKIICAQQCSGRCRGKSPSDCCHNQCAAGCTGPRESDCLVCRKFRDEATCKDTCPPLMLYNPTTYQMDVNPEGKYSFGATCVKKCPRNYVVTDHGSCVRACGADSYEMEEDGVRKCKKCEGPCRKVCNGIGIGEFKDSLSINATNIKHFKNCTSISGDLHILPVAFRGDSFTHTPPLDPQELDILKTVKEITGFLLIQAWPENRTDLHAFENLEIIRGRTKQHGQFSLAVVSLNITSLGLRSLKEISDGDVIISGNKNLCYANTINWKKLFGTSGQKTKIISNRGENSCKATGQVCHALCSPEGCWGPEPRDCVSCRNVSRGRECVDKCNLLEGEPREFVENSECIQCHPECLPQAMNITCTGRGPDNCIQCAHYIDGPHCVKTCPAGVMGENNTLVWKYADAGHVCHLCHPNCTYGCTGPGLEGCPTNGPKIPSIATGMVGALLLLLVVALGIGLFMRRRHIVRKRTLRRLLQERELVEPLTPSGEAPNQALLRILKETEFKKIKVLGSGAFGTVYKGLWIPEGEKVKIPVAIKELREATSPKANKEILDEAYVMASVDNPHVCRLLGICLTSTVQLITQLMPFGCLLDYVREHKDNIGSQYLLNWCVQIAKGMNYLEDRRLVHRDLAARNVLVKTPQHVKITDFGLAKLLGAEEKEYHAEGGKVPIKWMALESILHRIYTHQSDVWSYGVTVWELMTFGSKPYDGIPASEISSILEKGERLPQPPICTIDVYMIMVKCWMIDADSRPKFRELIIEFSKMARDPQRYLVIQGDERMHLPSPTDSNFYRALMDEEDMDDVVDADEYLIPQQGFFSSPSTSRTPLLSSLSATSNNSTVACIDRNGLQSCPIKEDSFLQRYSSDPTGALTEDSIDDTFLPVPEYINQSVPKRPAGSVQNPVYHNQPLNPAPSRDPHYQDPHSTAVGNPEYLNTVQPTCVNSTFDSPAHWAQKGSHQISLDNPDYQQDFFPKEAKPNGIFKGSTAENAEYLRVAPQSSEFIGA

SMILES | VEGFR2 MCF7 % Inhibition [1] [%] | VEGFR2 MCF7 RQ (relative quantification) [1] | IC50 [2] [nM] | IC50 [3] [nM] | SI = IC50(COX-1)/IC50(COX-2) [3] | IC50 [4] [nM] | SI (selectivity index), HCT116 [4] | EGFR MCF7 % Inhibition [5] [%] | EGFR MCF7 RQ (relative quantification) [5] | SI = CC50/IC50 [6] | EGFR HCT116 % Inhibition [7] [%] | EGFR HCT116 RQ (relative quantification) [7] | IC50 [8] [nM] | IC50 [9] [nM] | SI (selectivity index), MCF7 [9] | VEGFR2 HCT116 % Inhibition [10] [%] | VEGFR2 HCT116 RQ (relative quantification) [10] | IC50 [11] [nM] | SI (selectivity index), A431 [11]
CC(=O)Oc1ccccc1C(=O)N1C/C(=C\c2cccs2)C(=O)/C(=C/c2cccs2)C1 [Compound 5i, 2-[(3E,5E)-4-Oxo-3,5-bis(thiophen-2-ylmethylene)piperidine-1-carbonyl]phenyl acetate] | 46.3 | 2.000 | 455 | 772 | 0.589 | 9260 ± 610 | 2.06 | 63.6 | 1.540 | 125.6 | 61.3 | 1.564 | 19000 ± 990 | 5580 ± 520 | 3.41 | 39.8 | 2.297 | 2150 ± 150 | 8.8
CC(=O)Oc1ccc(Cl)cc1C(=O)N1C/C(=C\c2ccccc2)C(=O)/C(=C/c2ccccc2)C1 [Compound 5j, 4-Chloro-2-[3,5-di((E)-benzylidene)-4-oxopiperidine-1-carbonyl]phenyl acetate] | 49.0 | 1.9 | 142 | 1190 | 0.120 | 2620 ± 190 | 3.53 | 65.7 | 1.45 | 5.7 | 68.5 | 1.273 | 9260 ± 750 | 4500 ± 390 | 2.06 | 79.0 | 0.8 | 2510 ± 180 | 3.7
CC(=O)Oc1ccc(Cl)cc1C(=O)N1C/C(=C\c2ccc(Cl)cc2)C(=O)/C(=C/c2ccc(Cl)cc2)C1 [Compound 5k, 2-[3,5-Bis((E)-4-chlorobenzylidene)-4-oxopiperidine-1-carbonyl]-4-chlorophenyl acetate] | 59.7 | 1.5 | 391 | 676 | 0.578 | 1970 ± 170 | 3.94 | 69.0 | 1.31 | 10.3 | 63.4 | 1.479 | 7770 ± 560 | 4070 ± 330 | 1.91 | 68.6 | 1.2 | 417 ± 30 | 18.6
CC(=O)Oc1ccc(Cl)cc1C(=O)N1C/C(=C\c2ccc(Br)cc2)C(=O)/C(=C/c2ccc(Br)cc2)C1 [Compound 5l, 2-[3,5-Bis((E)-4-bromobenzylidene)-4-oxopiperidine-1-carbonyl]-4-chlorophenyl acetate] | 70.5 | 1.1 | 590 | 1010 | 0.582 | 1150 ± 130 | 6.27 | 66.9 | 1.4 | 11.1 | 66.9 | 1.336 | 7230 ± 490 | 4150 ± 370 | 1.74 | 76.4 | 0.9 | 667 ± 70 | 10.8

From publication PMC8566089 (Bioorganic Chemistry, 2021)
